{
  "source": "patent US20140057895A1",
  "about": "“INDAZOLE- AND PYRROLOPYRIDINE-DERIVATIVE AND PHARMACEUTICAL USE THEREOF” (priority 2011, published 2014)",
  "key": {"[1]": {"test_system": "scopolamine and MK801-induced cognitive impairment", "test": "Example 5: Y-maze test, scopolamine and MK801-induced deficits, co-administration with donepezil (Table 102)", "assay_type": "in vivo, ddY mouse", "settings": "Donepezil 10 mg/kg, p.o. alone", "text": "(§1) Thus, scopolamine-induced cognitive impairment model, one of the AD-like model, has been used to predict pharmacodynamic signals of putative procognitive compounds, utilizing the acetylcholinesterase inhibitor donepezil for illustration (See, Citations 1 and 2). The present inventors investigated the effect of each compound on reversal of scopolamine-induced deficits in performance of Y-maze test in mice, and they also investigated adjunctive effect of compounds with donepezil on reversal of deficits induced by scopolamine and MK801 in mice.\n(§2) Used animal: ddY mouse (SLC)\n(§3) In the experiments, the mice were grouped in the same way using Stat Preclinica (Version 1.03295; Takumi Information Technology Inc.). The selected mice were divided into 5 to 7 groups of 7 to 12 mice using the “completely randomization design by the single variable” program (Analytical program version 1.0.7), with body weight on the testing day. After grouping, p values for Bartlett's test and ANOVA across all groups were greater than 0.2, indicating no significant difference in this parameter among the groups.\nThe required amount of each compound was weighed and put into a glass homogenizer. The required amount of 0.5% MC (methyl cellulose) solution was added, and each compound was suspended to give a 10 mg/kg dosing suspension.\nThe required amount of donepezil was weighed and put into a glass homogenizer. The required amount of 0.5% MC solution was added, and donepezil was suspended to give a suspension at concentration of 1 mg/mL (10 mg/kg dosing suspension).\n(§4) The required amount of scopolamine and MK801 were weighed, and saline was added to it to give 0.3 mg/mL and 0.015 mg/mL solution, respectively.\n(§5) 90 Min before the test, the mice were orally administered each compound, donepezil, and vehicle (0.5% methyl cellulose, 10 mL/kg). After 60 min, memory impairment was induced by administering scopolamine (0.6 mg/kg, s.c.) with (co-administration) or without (mono-administration) MK801 (0.03 mg/kg, s.c.). The control group received saline (2 mL/kg, s.c.) rather than scopolamine and MK801.\n(§6) The Y-maze used herein is a three-arm maze with equal angles between all arms. The mazefloor and walls were constructed from black acrylic resin. The mice were initially placed within one arm, and the sequence and number of arm entries were recorded manually for each mouse over an 8-min period.\n(§7) Data were processed and analyzed with Microsoft® Office Excel 2003. The alternation behavior was defined as entries into all three arms on consecutive occasions. The percent alternation behavior in each animal was calculated using the following formula, and rounded to one decimal place.\n(§8) Alternation behavior(%)=[actual alternation/(total arm entries−2)]×100\n(§9) Restoration ratio of alternation behavior (%) in each animal was calculated using the following formula, and rounded to one decimal place.\n(§10) Restoration ratio of alternation behavior in each animal (%)=y Alternation behavior in each animal (%)=x Mean of alternation behavior in vehicle-treated group (group No. 1) (%)=A Mean of alternation behavior in scopolamine-treated group (group No. 2) (%)=B\n(§11) Data were expressed as the mean of the percent alternation behavior, the number of total arm entries and the restoration ratio of alternation behavior.\n(§12) Values of Y-maze tests are expressed as mean of alternation behavior (n=7−12).\n(§13) Alternation behaviors in the scopolamine-treated groups were compared to those in the control groups using Wilcoxon rank sum test (Stat preclinical; Version 1.03295; Takumi Information Technology Inc.) with a two-sided significance level of 0.05.\nRestoration of alternation behavior was analyzed using Stat Preclinica. Alternation behaviors in the Donepezil (10 mg/kg, p.o.)-treated group were compared to those in the co-administrated groups of test compounds with donepezil (10 mg/kg, p.o.) using non-parametric Dunnett multiple comparison test (Analytical program version 1.0.2) with a two-sided significance level of 0.05."}, "5-HT4 receptor": {"target": "T1, 5-HT4 receptor (Cavia porcellus, UniProt O70528)", "T1 construct": "striatum was isolated which was cryopreserved at −80° C. until use; from tissue; host or cells: guinea pig (Slc-Hartley) striatum membranes", "T1 sequence (O70528 whole entry)": "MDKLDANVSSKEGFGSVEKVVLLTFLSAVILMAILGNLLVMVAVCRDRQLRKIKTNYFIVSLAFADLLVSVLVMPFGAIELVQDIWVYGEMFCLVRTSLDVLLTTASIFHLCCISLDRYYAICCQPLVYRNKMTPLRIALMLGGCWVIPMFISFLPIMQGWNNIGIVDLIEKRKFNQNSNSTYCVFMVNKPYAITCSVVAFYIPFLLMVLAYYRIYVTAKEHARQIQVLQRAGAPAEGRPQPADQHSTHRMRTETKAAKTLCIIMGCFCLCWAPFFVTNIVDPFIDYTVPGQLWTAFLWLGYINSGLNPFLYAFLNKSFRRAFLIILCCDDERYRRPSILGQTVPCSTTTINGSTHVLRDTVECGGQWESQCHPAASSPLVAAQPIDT", "test": "Test Example 1: Serotonin 4 (5-HT4) receptor binding assay, [3H]-GR113808, guinea pig striatum membranes (Table 96)", "settings": "Guinea pig 5-HT4 receptor binding assay, [3H]-GR113808, striatum membranes; mean value of each group", "procedure": "The 5-HT4 receptor binding assay and preparations of receptor membrane preparations herein were carried out according to a method of Grossman et al. [see, British J. Pharmacol., (1993) 109, 618].\nSlc-Hartley guinea pigs (body weight 300 g to 400 g) were decapitated to remove brain rapidly, and striatum was isolated which was cryopreserved at −80° C. until use. To the obtained tissues were added fifteen fold of Hepes buffer (50 mM, pH 7.4, 4° C.), and the mixture was homogenized by Teflon (trademark) homogenizer and centrifuged at 48,000×g (4° C.) for 15 minutes. To the resulting precipitate was added Hepes buffer (1 ml) to 30 mg by wet weight of tissues, and the mixture was suspended to give receptor membrane preparations.\nTo an assay tube were added 0.1 nM [^3H]-GR113808 {chemical name: [1-[2-(methylsulfonylamino)ethyl]-4-piperidinyl]methyl 1-methylindole-3-carboxylate}, receptor membrane preparations, and Hepes buffer (50 mM, pH 7.4, 4° C., 1 ml) containing test compounds or 30 μM serotonin; and the mixture was incubated at 37° C. for 30 minutes. On quenching the reaction, the mixture was rapidly filtered on whatman GF/B filter, which was presoaked in 0.1% polyethyleneimine for 1 hour, by using Brandel cell Harvester, and washed with ice-cooled 50 mM Tris-HCl (pH 7.7, 4 ml) three times. To the filter after filtration was added a liquid scintillator (Ecoscint), and then a radioactivity was determined by a liquid scintillation counter.\n50% Inhibition concentrations (IC50) were determined from inhibition rates of test compounds to specific bindings which were obtained by subtracting nonspecific bindings from total binding amounts of [^3H]-GR113808.\n(§14) In the following table, the compounds used in the test are shown in numbers which correspond to the Example numbers above where the preparations of the compounds are described."}, "human 5-HT4b receptor": {"target": "T2, human 5-HT4b receptor (Homo sapiens, UniProt Q13639)", "T2 construct": "expressed in transfected cells; host or cells: CHO cells (G418 selection)", "T2 sequence (Q13639 whole entry)": "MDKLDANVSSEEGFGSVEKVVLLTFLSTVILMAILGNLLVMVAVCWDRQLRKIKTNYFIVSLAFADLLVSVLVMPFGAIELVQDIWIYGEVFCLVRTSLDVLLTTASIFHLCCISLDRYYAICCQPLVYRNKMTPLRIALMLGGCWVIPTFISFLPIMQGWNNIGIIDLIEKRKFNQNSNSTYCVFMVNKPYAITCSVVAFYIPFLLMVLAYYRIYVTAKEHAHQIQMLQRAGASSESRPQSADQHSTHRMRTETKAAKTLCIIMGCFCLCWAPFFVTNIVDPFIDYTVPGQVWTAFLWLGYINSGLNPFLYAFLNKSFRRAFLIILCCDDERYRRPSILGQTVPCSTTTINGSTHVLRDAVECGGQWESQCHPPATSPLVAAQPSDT", "test": "Test Example 2: Serotonin 4 (5-HT4) receptor agonist activity assay, cAMP HTRF in CHO cells (Table 97)", "assay_type": "cell-based", "settings": "cAMP in CHO cells expressing human 5-HT4b receptor, mean value", "procedure": "The cAMP measurement test used herein was carried out by using CISBIO HTRF (trademark) cAMP Hirange kit according to the manufacturer's instructions attached therewith.\nCHO cells expressing human 5-HT4b receptor were incubated in Medium 1 [DMEM/1% NEAA, 1% penicillin/streptomycin (P/S), 0.2 mg/mL GENETICIN (G418), 10% FBS] at 37° C. under 5% CO2 condition. Then, the cells were put into Medium 2 (DMEM/10000 cut FBS, G-418, P/S, NEAA) for 1 to 2 hours, and collected by treating with trypsin containing EDTA. The collected cells were suspended in Assay Buffer 1 [100 mM Hanks/HEPES buffer (pH 7.4)], the suspended cells were mixed with the testing compound on 384-well plates, and the cells were incubated at 31° C. for 15 minutes. To the cells were added cAMP-cryptate solution and cAMP-d2 solution, and they were incubated at room temperature for 1 hour. Then, time-resolved fluorescence was measured by En Vision (excitation wavelength: 330 nm, fluorescence wavelength: 620/665 nm). An intrinsic activity of the compound [IA (%)] and a concentration showing 50% of IA [EC50 (nM)] were calculated from the obtained results. In particular, the intrinsic activity (IA) was calculated on the basis of the maximal activity of 5-HT (measured from 10^−11 M to 10^−7 M) defined as 100%.\nas §14"}, "[2]": {"test_system": "scopolamine-induced cognitive impairment", "test": "Example 5: Y-maze test, scopolamine-induced cognitive impairment, single-agent administration (Table 101)", "assay_type": "in vivo, ddY mouse", "settings": "p.o., scopolamine-treated, # = P<0.05 vs scopolamine group", "text": "as §1, §2, §3\nThe required amount of each compound was weighed and put into a glass homogenizer. […]\nas §4, §5, §6, §7, §8, §9, §10, §11, §12, §13\nRestoration of alternation behavior was analyzed using Stat Preclinica. Alternation behaviors in the vehicle-treated group were compared to those in the test substance-treated groups using non-parametric Dunnett multiple comparison test (Analytical program version 1.0.2) with a two-sided significance level of 0.05."}, "[3]": {"settings": "animal experiment using rats; cited from earlier work"}, "[4]": {"settings": "phase II clinical trial with AD patients; cited from earlier work"}},
  "note": "Values joined by “and” are separate entries in the source; they are usually repeats but may differ in a detail not shown here. Identical values can stand only once. Marks after values point to notes of the source that are not given here.",
  "data": [
    {"smiles": "COc1cc2c(cc1OC)C(=O)C(CC1CCN(Cc3ccccc3)CC1)C2", "note": "(stereo not drawn) [Donepezil, donepezil, reference compound]", "values": [
      {"measurement": "Alternation behavior (%)", "setting": "[1]", "value": "51.5^# % and 49.9^# %"}
    ]},
    {"smiles": "CCc1nn(-c2noc(C3CCN(CCC4CCOCC4)CC3)n2)c2cc(F)ccc12", "note": "[Example 137, 3-ethyl-6-fluoro-1-(5-{1-[2-(tetrahydro-2H-pyran-4-yl)ethyl]piperidin-4-yl}-1,2,4-oxadiazol-3-yl)-1H-indazole]", "values": [
      {"measurement": "IC50", "setting": "5-HT4 receptor", "value": "< 20", "unit": "nM"},
      {"measurement": "Emax", "setting": "human 5-HT4b receptor; 0.25 h, intrinsic activity, maximal activity of 5-HT defined as 100%, read-out: IA (%)", "value": 66, "unit": "%"},
      {"measurement": "EC50", "setting": "human 5-HT4b receptor; concentration showing 50% of IA", "value": 8.6, "unit": "nM"},
      {"measurement": "Alternation behavior (%)", "setting": "[2]; compound 3 mg/kg", "value": 49.3, "unit": "%"},
      {"measurement": "Alternation behavior (%)", "setting": "[2]; compound 10 mg/kg", "value": "62.6^# %"}
    ]},
    {"smiles": "CC(C)n1c(=O)c(C(=O)NCCCN2CCCCC2)c(O)c2ccsc21", "note": "[PRX-03140]", "values": [
      {"measurement": "improving cognitive function", "setting": "[3]", "value": "efficacious for improving cognitive function"},
      {"measurement": "lowering Aβ", "setting": "[3]", "value": "lowering Aβ"},
      {"measurement": "effect for improving cognitive function", "setting": "[4]", "value": "shows the effect for improving cognitive function"}
    ]}
  ]
}
